In the METLIN SMRT retention time set (Domingo-Almenara et al. 2019):

Test: gradient 5% acetonitrile 3 min, to 50% in 2 min, to 85% in 15 min, held 3 min, 100 µL/min
Details: column: Zorbax Extend-C18 2.1 x 50 mm; eluents: water / acetonitrile, 0.1% formic acid
Summary of the method: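 Values are retention times taken from adduct peaks that software picked and an analyst inspected. The pure standards were run as mixtures of ~100 molecules on HPLC linked to a quadrupole time-of-flight mass spectrometer, in positive and negative ionization mode. A Zorbax Extend-C18 column (2.1 × 50 mm, 1.8 μm) was used at 100 μL/min with water and acetonitrile, each including 0.1% formic acid.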

RP-LC retention time	Compound
569 s	CC(=O)N1CCC(C(=O)N(C)C2CCc3nn(C)c(=O)n3CC2)CC1 (centres undefined)
792 s	CC(C)n1cnc(S(=O)(=O)N2CCCC(C(=O)Nc3ccc(F)cc3F)C2)c1 (centres undefined)
781 s	Cn1cc(C(CNC(=O)Nc2ccc(Br)cc2F)c2cccnc2)c2ccccc21 (centres undefined)
1030 s	CCn1c(=O)c(N2CCC(NC(=O)Nc3ccccc3Br)CC2)nc2ccccc21
702 s	O=C(Cc1cccs1)N1CCC(c2noc(-c3ccncc3)n2)C1 (centres undefined)
617 s	CC(C)CNC(=O)N1CCCC(c2nn[nH]n2)C1 (centres undefined)
607 s	CC(C)CNC(=O)N1CC(n2cc(C(=O)N3CCOCC3)nn2)C1
853 s	Cc1cccc(N2CCN(C(=O)CN3CCN(Cc4ccccc4)C3=O)CC2)c1
726 s	Cc1ccc(C(=O)NC2CCN(c3cc(-c4cccs4)[nH]n3)C2)cc1C (centres undefined)
891 s	O=c1c2nc(-c3ccc(Cl)cc3)cn2ccn1-c1ccc(F)c(F)c1
935 s	CCOC(=O)CNC(=O)N1CC(CC)Oc2ccc(C)cc21 (centres undefined)
658 s	CN(C)CCNC(=O)C1CCN(c2nc3ccc(-c4ccccc4F)nc3s2)CC1
1290 s	CCOc1nc2ccccc2nc1N1CCCC(C(=O)Nc2c(Cl)cccc2Cl)C1 (centres undefined)
975 s	COC(=O)c1ccc2c(=O)n(Cc3ccc(F)cc3)c(N3CCOCC3)nc2c1
657 s	CN(C)c1nc2cc(C(=O)N3CCCC3)sc2n1-c1ccccc1
631 s	CCNc1cc(N2CCC(CCC(=O)N3CCC(COC)CC3)CC2)ncn1
615 s	Cc1ccc(NC(=O)NCC2(N3CCOCC3)CCOC2)cc1C (centres undefined)
657 s	CCS(=O)(=O)N1CCCc2cc(C(=O)NC)ccc21
770 s	Cc1ccc2c(=O)c(C(=O)Nc3cccc(F)c3)c[nH]c2n1
774 s	O=C(c1cccc(F)c1)N1CCN(c2cc(-c3cccs3)[nH]n2)CC1
984 s	CCCCN(C)S(=O)(=O)c1cc(-c2nnc(C(C)C)o2)co1
1080 s	Cn1nccc1-c1cccc(-c2noc(-c3ccc(CS(=O)(=O)c4ccccc4)cc3)n2)c1

RP-LC retention time	Compound
1040 s	COc1cc(OC)cc(-c2noc(CCn3nc(-c4cccc(Cl)c4)ccc3=O)n2)c1
997 s	O=C(NC1CCCC1)N1CCN(c2nc3ccccc3n(Cc3ccccc3)c2=O)CC1
757 s	CC(C)N1CCn2cc(S(=O)(=O)Nc3ccc(F)cc3)cc2C1=O
880 s	Cc1[nH]c(C(=O)Nc2cccc(F)c2)c(C)c1S(=O)(=O)N1CCCC1
846 s	Cc1ccc(N2CCC(NC(=O)Nc3ccc(F)cc3)C2=O)cc1 (centres undefined)
712 s	O=C(NC1CC1)c1nc(Nc2ccc(F)cc2)c2ccccc2n1
1210 s	COc1cccc(CCC(=O)Nc2ccc3c(c2)Sc2ncccc2C(=O)N3C)c1
1000 s	O=c1ccc(-c2ccc(Cl)cc2)nn1CCc1nc(-c2cccs2)no1
892 s	COc1ccc(CNC(=O)c2c(O)c3cccnc3[nH]c2=O)cc1
664 s	O=C(NC1CC1)C1CCN(c2cnn(Cc3ccccc3)c(=O)c2)C1 (centres undefined)
602 s	CCC(=O)N1CCN(Cc2nc3cc(NC(=O)c4cccs4)ccc3n2C)CC1
592 s	COc1ccc(-n2c(CSc3ncccn3)nnc2SCC(=O)NO)cc1
1310 s	CCOc1nc2ccccc2nc1N1CCCC(C(=O)N2CCc3ccccc3C2)C1 (centres undefined)
642 s	O=C(COc1ccc(-c2nnc3n2CCCC3)cc1)Nc1cccc(Br)c1
970 s	Cn1cnc([N+](=O)[O-])c1S(=O)(=O)Oc1cccc2ccccc12
894 s	Cc1cccc(-n2nc3c(c2-n2cccc2)CN(C(=O)c2snnc2C)C3)c1
827 s	COC(=O)C(C)NC(=O)NCc1cccn1Cc1cccc(C)c1 (centres undefined)
707 s	COc1ccc(OC)c(CNC(=O)c2nc(N3CCCC3)c3ccccc3n2)c1
811 s	O=C(NCCCn1c(C(F)(F)F)nc2cccnc21)Nc1cccc(F)c1
865 s	COc1ccc(CNC(=O)c2nnc(-c3ccc(S(=O)(=O)N(C)C)cc3)o2)cc1OC
878 s	CCn1ccc2oc(C)c(C(=O)NCc3cc(C)ccc3C)c2c1=O
975 s	Cc1cc(Cl)ccc1S(=O)(=O)N1CCC(OC2CCN(CC3CC3)C2=O)CC1 (centres undefined)

RP-LC retention time	Compound
817 s	COc1cccc(-n2ccc(=O)c(-c3nc(-c4ccc(OC)c(OC)c4)no3)n2)c1
1050 s	CC1CCN(c2cc(-n3cnc(C(=O)N(C)Cc4ccccc4)c3)ncn2)CC1
990 s	O=C(NCC1CCCO1)C1CCN(c2ncccc2-c2nc(-c3cccc(Cl)c3)no2)CC1 (centres undefined)
950 s	CC(C)c1ccc(C(=O)Nc2ccc3c(c2)Sc2ncccc2C(=O)N3C)cc1
1220 s	COc1ccc(CNc2ccc(-c3nc(-c4ccc(F)cc4)no3)cn2)cc1
717 s	O=C(Nc1nc2c(s1)CN(C(=O)c1cc(-c3ccc(F)cc3)n[nH]1)CC2)c1ccco1
689 s	c1ccc(-c2nc(-c3cnccn3)no2)c(OC2CCN(Cc3ccc4c(c3)CCO4)C2)c1 (centres undefined)
880 s	CCc1nnc(-c2cn(CC(=O)NCc3ccc(SC)cc3)c3ccccc23)o1
1000 s	Cc1noc(C)c1CCNC(=O)c1cc2c(-c3cccs3)nn(-c3ccccc3)c2n1C
685 s	O=C1NCCOc2ccc(NS(=O)(=O)c3ccc(F)c(Cl)c3)cc21
807 s	O=C(Nc1cccc(Oc2ccccn2)c1)c1c2c(nn1C1CCS(=O)(=O)C1)CCC2 (centres undefined)
832 s	O=C1COc2ccc(S(=O)(=O)N3CCC(C(=O)NCc4ccc(Cl)cc4)CC3)cc2N1
637 s	COc1ccc2c(c1)CC(NC(=O)N1CCN(Cc3ccccc3)CC1)CO2 (centres undefined)
945 s	CCNC(=O)N1CC(Oc2ccc(-c3nc(-c4ccccc4)no3)cc2)C1
776 s	COc1ccc(NC(=O)c2cnc(N3CCN(c4ccc(F)cc4)CC3)nc2N)cc1
606 s	CCCN(CCC)C(=O)c1cc(NC(=O)C(C)C)cnc1N1CCNCC1
830 s	CCC(C)NC(=O)C1CCN(S(=O)(=O)c2c(C)nn(-c3ccccc3)c2C)CC1 (centres undefined)
743 s	Clc1ccc(-c2ccc(CNCc3ccco3)o2)c(Cl)c1
666 s	COCCNC(=O)c1ccc2c(c1)nc(C)n2-c1ccc(Br)cc1
774 s	CC(C)c1ccc(Nc2nc3ccncc3n(C(C)C)c2=O)cc1
668 s	Cc1ccc(S(=O)(=O)Nc2cc(-c3cn4ccccc4n3)ccc2C)cc1
840 s	COC(=O)c1cccc(NC(=O)c2nc(C)oc2C)c1

RP-LC retention time	Compound
897 s	Cc1cc(=O)n(CCc2ccccc2)c(N2CCSCC2)n1
688 s	COc1cc2c(cc1NC(=O)c1ccco1)n(C)c(=O)n2C
608 s	CS(=O)(=O)N1CCN(C(=O)c2coc(NC(=O)c3ccccc3)n2)CC1
756 s	COC(=O)c1cccc(NC(=O)N2CCN(Cc3nc4ccc(Cl)cc4o3)CC2)c1
693 s	O=C(NCC1CCCO1)c1nnn(-c2ccccc2Cl)c1-c1ccncc1 (centres undefined)
654 s	CC1(C)CCC(NC(=O)[C@@H](N)CCC(=O)O)CC1
898 s	CC(C)C(=O)N1CCN(c2ccc(Nc3c4c(nc5nc(-c6ccccc6)nn35)CCCC4)cc2)CC1
646 s	Cc1ccc2[nH]c(=O)c(CCC(=O)N(C)Cc3cn(C)nc3C)cc2c1
657 s	CC(=O)Cc1nsc(NC(=O)c2cc(-c3cccc(C(F)(F)F)c3)oc2C)n1
896 s	CC(C)(C)c1noc(-c2ccc(-n3cnc(C(=O)NCC4CC4)c3)nc2)n1
863 s	COc1ccc(S(=O)(=O)N2CCC(C(=O)NCCc3csc(-c4cccs4)n3)CC2)cc1
961 s	Cc1cccc(-c2noc(C3CCCN3C(=O)Nc3ccc4c(c3)OCO4)n2)c1 (centres undefined)
664 s	CS(=O)(=O)N(C1CCOCC1)C1CN(C(=O)Nc2ccc(F)cc2F)C1
614 s	Cc1ccnc(NC(=O)C2CCN(S(=O)(=O)c3cc(C(=O)N4CCOCC4)cs3)CC2)c1
803 s	O=C(NCCCn1cccc1)C1COc2ccccc2O1 (centres undefined)
684 s	CCN1CCn2cc(S(=O)(=O)Nc3ccc(OC)cc3)cc2C1=O
993 s	O=C(Cn1cnc2c(sc3nc(-c4ccccc4)ccc32)c1=O)Nc1ccccc1F
791 s	O=C(NCc1ccc(F)cc1)c1ccc2c(c1)Sc1ncccc1C(=O)N2C1CC1
902 s	COc1ccccc1CC(=O)N1CCCC1c1cc(C(C)C)on1 (centres undefined)
653 s	CCCNC(=O)C1CCN(c2ccc(SCC(=O)Nc3cc(OC)cc(OC)c3)nn2)CC1
808 s	Cc1c(F)cccc1NC(=O)C1CCc2nc(N3CCOCC3)ncc2C1 (centres undefined)

Compound	RP-LC retention time
CC1OC(O[C@@H]2C=C3CC[C@@H]4[C@H](CC[C@]5(C)[C@@H](c6ccc(=O)oc6)CC[C@]45O)[C@@]3(C)CC2)C(O)C(O)C1O (some centres undefined)	691 s
COc1ccc2c(c1)C1(CCN(C(=O)Nc3ccccc3C)C1)C(=O)N2 (centres undefined)	707 s
